Test results taken from US8148391B2 (Cephalon, Inc., priority 2006, dated 2012).
pIC50: −log10 of the molar value. Read-outs that look alike come from different tables or passages of the source.

How the values were obtained:
[1] = target: T1, c-Met (cytoplasmic domain) (Homo sapiens, UniProt P08581); assay: c-Met Kinase Assay (same methods as for ALK, with modifications); format: biochemical
T1 construct: 10 ng/mL c-Met (cytoplasmic domain, Invitrogen Corporation #PV3143); purchased Invitrogen Corporation PV3143
T1 sequence (P08581 956-1390 limits assumed): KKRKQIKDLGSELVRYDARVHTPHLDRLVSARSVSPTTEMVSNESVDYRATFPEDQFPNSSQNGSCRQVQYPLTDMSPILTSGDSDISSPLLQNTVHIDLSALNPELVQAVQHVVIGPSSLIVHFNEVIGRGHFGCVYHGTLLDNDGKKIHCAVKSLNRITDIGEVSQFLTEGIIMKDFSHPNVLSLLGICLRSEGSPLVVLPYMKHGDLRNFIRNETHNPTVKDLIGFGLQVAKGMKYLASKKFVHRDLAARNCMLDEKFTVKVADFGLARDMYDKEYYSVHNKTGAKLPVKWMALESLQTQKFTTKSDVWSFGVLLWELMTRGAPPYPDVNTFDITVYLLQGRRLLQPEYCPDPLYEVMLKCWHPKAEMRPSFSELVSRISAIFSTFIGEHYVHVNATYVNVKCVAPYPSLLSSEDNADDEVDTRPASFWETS
How it was run: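 IC50 values were fitted by variable-slope sigmoidal regression of percent inhibition against log compound concentration. Phosphorylation was read with Eu-N1 PT66 antibody after a 15 min, 37 °C reaction. The reaction was initiated with 10 ng/mL c-Met cytoplasmic domain on wells coated with 10 μg/mL PLC-γ in TBS.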

[2] = target: T2, baculovirus-expressed ALK (Homo sapiens, UniProt Q9UM73); assay: ALK Kinase Assay (ELISA-type, time-resolved fluorescence); format: biochemical
T2 construct: host or cells: baculovirus expression system
T2 sequence (Q9UM73 19-1620): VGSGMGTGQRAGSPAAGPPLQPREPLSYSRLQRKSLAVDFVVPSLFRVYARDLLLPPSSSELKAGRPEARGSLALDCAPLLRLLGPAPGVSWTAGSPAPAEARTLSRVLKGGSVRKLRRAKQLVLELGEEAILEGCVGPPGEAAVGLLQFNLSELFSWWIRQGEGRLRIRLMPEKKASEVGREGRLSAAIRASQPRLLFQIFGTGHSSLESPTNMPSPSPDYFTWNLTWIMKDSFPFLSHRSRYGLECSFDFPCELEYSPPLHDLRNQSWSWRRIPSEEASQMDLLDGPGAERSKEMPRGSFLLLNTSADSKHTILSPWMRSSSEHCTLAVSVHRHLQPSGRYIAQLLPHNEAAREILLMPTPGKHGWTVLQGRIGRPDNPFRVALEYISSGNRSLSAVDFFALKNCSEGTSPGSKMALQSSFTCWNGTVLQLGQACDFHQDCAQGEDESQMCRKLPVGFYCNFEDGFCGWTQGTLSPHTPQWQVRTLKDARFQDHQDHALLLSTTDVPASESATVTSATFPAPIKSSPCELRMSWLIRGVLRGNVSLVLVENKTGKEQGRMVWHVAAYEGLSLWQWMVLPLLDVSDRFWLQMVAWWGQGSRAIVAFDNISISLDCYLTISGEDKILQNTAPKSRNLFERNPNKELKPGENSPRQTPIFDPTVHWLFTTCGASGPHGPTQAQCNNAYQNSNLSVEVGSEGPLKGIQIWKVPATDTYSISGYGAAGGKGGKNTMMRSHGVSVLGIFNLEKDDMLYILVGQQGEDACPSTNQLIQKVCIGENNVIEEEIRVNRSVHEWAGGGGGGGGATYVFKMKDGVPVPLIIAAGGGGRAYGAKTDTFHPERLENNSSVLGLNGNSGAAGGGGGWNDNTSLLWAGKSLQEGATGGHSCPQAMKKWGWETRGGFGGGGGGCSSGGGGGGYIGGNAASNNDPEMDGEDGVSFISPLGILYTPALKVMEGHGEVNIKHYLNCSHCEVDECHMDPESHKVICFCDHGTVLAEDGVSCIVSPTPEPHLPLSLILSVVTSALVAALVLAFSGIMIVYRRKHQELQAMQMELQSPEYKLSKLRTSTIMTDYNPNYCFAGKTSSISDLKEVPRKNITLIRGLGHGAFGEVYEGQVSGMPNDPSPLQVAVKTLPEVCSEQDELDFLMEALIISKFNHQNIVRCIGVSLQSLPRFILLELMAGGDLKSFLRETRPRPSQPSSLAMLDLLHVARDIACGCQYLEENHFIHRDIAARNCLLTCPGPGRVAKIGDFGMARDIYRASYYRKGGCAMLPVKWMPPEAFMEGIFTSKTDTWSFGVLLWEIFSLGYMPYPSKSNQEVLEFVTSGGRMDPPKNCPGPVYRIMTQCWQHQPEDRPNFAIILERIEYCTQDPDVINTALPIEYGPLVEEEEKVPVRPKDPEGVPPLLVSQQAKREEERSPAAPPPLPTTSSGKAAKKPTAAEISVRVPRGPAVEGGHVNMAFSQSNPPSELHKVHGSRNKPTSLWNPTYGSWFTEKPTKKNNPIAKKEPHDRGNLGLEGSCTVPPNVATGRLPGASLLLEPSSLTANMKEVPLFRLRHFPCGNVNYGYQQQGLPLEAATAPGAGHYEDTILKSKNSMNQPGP
How it was run: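 Wells were coated with phospholipase C-γ at 10 μg/mL in Tris-buffered saline. Adding 30 ng/ml enzyme started the reaction, which ran at 37° C for 15 minutes before Eu-N1 PT66 antibody detection. Percent inhibition versus log10 concentration gave IC50 by variable-slope fit.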

[3] = 1 μM ATP (Km level), read-out: cMet Activity (c-Met Kinase Inhibition, IC50)
[4] = 1 μM ATP (Km level), read-out: ALK Activity (ALK Kinase Inhibition, IC50)
[5] = 1 μM ATP (Km level), 10 ng/mL c-Met, read-out: cMet Activity (c-Met kinase inhibition, IC50 class)
[6] = 1 μM ATP (Km level), 30 ng/ml ALK, 37° C., 15 minutes, read-out: ALK Activity (ALK kinase inhibition, IC50 class)
[7] = c-Met kinase inhibition, 1 μM ATP, read-out: cMet Activity
[8] = ALK kinase inhibition, 1 μM ATP, read-out: ALK Activity

pIC50 [1, 5]	pIC50 [2, 6]	pIC50 [1, 7]	pIC50 [2, 8]	Compound	other results
–	–	–	–	COc1cc2c(cc1Nc1ncc(Cl)c(Nc3ccc(N4CCOCC4)c(OC)c3)n1)CCN(CC(=O)N(C)C)CC2 [Example 803, 2-{7-[5-Chloro-4-(3-methoxy-4-morpholin-4-yl-phenylamino)-pyrimidin-2-ylamino]-8-methoxy-1,2,4,5-tetrahydro-benzo[d]azepin-3-yl}-N,N-dimethyl-acetamide]	pIC50 [1, 3]: < 5.00; pIC50 [2, 4]: > 7.00
6.00 to 7.00	> 7.00	–	–	CNC(=O)c1ccccc1Nc1nc(Nc2cc3c(cc2OC)CCC(NCCOC)CC3)ncc1Cl (centres unmarked) [Example 1086, 2-{5-Chloro-2-[3-methoxy-7-(2-methoxy-ethylamino)-6,7,8,9-tetrahydro-5H-benzocyclohepten-2-ylamino]-pyrimidin-4-ylamino}-N-methyl-benzamide]	–
–	–	5.00 to 6.00	6.00 to 7.00	COc1cc2c(cc1Nc1ncc(C(F)(F)F)c(Nc3ccc(N4CCOCC4)cc3OC)n1)N(C)C(=O)OCC2 [Example 1518, 2-Methoxy-3-[4-(2-methoxy-4-morpholin-4-yl-phenylamino)-5-trifluoromethyl-pyrimidin-2-ylamino]-5-methyl-8,9-dihydro-5H-7-oxa-5-aza-benzocyclohepten-6-one]	–
–	–	–	–	CC1(C)CCC(=O)Nc2ccc(Nc3ncc(Cl)c(Nc4ccccc4-c4ncccn4)n3)cc21 [Example 976, 7-[5-Chloro-4-(2-pyrimidin-2-yl-phenylamino)-pyrimidin-2-ylamino]-5,5-dimethyl-1,3,4,5-tetrahydro-benzo[b]azepin-2-one]	pIC50 [1, 3]: < 5.00; pIC50 [2, 4]: > 7.00
–	–	6.00 to 7.00	6.00 to 7.00	C#CCNC(=O)c1cccc(F)c1Nc1nc(Nc2ccc3c(c2)NCCCC3(C)C)ncc1Cl [Example 1612, 2-[5-Chloro-2-(5,5-dimethyl-2,3,4,5-tetrahydro-1H-benzo[b]azepin-8-ylamino)-pyrimidin-4-ylamino]-3-fluoro-N-prop-2-ynyl-benzamide]	–
< 5.00	> 7.00	–	–	COc1cc2c(cc1Nc1ncc(Cl)c(N[C@@H]3CCCC[C@H]3NS(C)(=O)=O)n1)CCN(C(CF)CF)CC2 [Example 1392, ((1R,2R)-2-{5-Chloro-2-[3-(2-fluoro-1-fluoromethyl-ethyl)-8-methoxy-2,3,4,5-tetrahydro-1H-benzo[d]azepin-7-ylamino]-pyrimidin-4-ylamino}-cyclohexyl)-methanesulfonamide]	–
–	–	> 7.00	6.00 to 7.00	CNC(=O)c1cccc(Cl)c1Nc1nc(Nc2ccc3c(c2)CNC(=O)CC3)ncc1Cl [Example 1796, 3-Chloro-2-[5-chloro-2-(3-oxo-2,3,4,5-tetrahydro-1H-benzo[c]azepin-8-ylamino)-pyrimidin-4-ylamino]-N-methylbenzamide]	–
> 7.00	> 7.00	–	–	CCN1CCCOc2ccc(Nc3ncc(Cl)c(Nc4c(F)cc(-c5cnn(C)c5)cc4C(=O)NC)n3)cc21 [Example 1425, 2-[5-Chloro-2-(9-ethyl-6,7,8,9-tetrahydro-5-oxa-9-aza-benzocyclohepten-2-ylamino)-pyrimidin-4-ylamino]-3-fluoro-N-methyl-5-(1-methyl-1H-pyrazol-4-yl)-benzamide]	–
< 5.00	> 7.00	–	–	CCN1C(=O)CCCc2cc(Nc3ncc(Cl)c(Nc4ccccc4-n4cccn4)n3)c(OC)cc21 [Example 1317, 7-[5-Chloro-4-(2-pyrazol-1-yl-phenylamino)-pyrimidin-2-ylamino]-1-ethyl-8-methoxy-1,3,4,5-tetrahydro-benzo[b]azepin-2-one]	–
–	–	–	–	CCN1CCc2ccc(Nc3ncc(Cl)c(N[C@@H]4CCCC[C@H]4NS(C)(=O)=O)n3)cc2CC1 [Example 441, N-{(1R,2R)-2-[5-Chloro-2-(3-ethyl-2,3,4,5-tetrahydro-1H-benzo[d]azepin-7-ylamino)-pyrimidin-4-ylamino]-cyclohexyl}methanesulfonamide]	pIC50 ([1]; c-Met kinase inhibition, 1 μM ATP (Km level), read-out: cMet Activity): 6.00 to 7.00; pIC50 ([2]; ALK kinase inhibition, 1 μM ATP (Km level), read-out: ALK Activity): > 7.00
